Results on 3 molecules are retold here after ChEMBL document CHEMBL1158206, “Ferintoic Acids A and B, New Cyclic Hexapeptides from the Freshwater Cyanobacterium Microcystis aeruginosa” (J Nat Prod, 1996).

Assay [1] can be described thus: Inhibition of chymotrypsin at 10 uM.
Assay [2] in a line: Inhibition of chymotrypsin at 150 uM.

Active and inactive are the calls of the source. The rule behind the calls is not given here. Numbered stars: 1 amine (or outer) side, 2 acyl side, 3 side chain; on linkers, the order of the positions; unused ones are H or OH. Bridge positions count the residues as written; N and C are the ends. Square brackets hold non-standard residues; d marks the D form. Peptide text beside a SMILES is read from it. hTyr = N[C@@H](CCc1ccc(O)cc1)C(=O)O; aIle = CC[C@@H](C)[C@H](N)C(=O)O; NMeA = CN[C@@H](C)C(=O)O; CO = O=C([*:1])[*:2]

With `CC[C@@H](C)[C@@H]1NC(=O)[C@H](NC(=O)N[C@@H](Cc2ccc(O)cc2)C(=O)O)CCCCNC(=O)[C@H](Cc2ccccc2)NC(=O)[C@H](C)N(C)C(=O)[C@H](CCc2ccc(O)cc2)NC1=O` ({Tyr-CO}-[dK][aIle][hTyr][NMeA]F; lactam 1-C), the outcome in assay [1] was Active.

For the molecule `CC[C@@H](C)[C@@H]1NC(=O)[C@H](NC(=O)N[C@@H](Cc2c[nH]c3ccccc23)C(=O)O)CCCCNC(=O)[C@H](Cc2ccccc2)NC(=O)[C@H](C)N(C)C(=O)[C@H](CCc2ccc(O)cc2)NC1=O`, the outcome in assay [2] was inactive.

In the case of `CC(C)[C@@H]1NC(=O)[C@H](NC(=O)N[C@@H](Cc2c[nH]c3ccccc23)C(=O)O)CCCCNC(=O)[C@H](Cc2ccccc2)NC(=O)[C@H](C)N(C)C(=O)[C@H](CCc2ccc(O)cc2)NC1=O` ({Trp-CO}-[dK]V[hTyr][NMeA]F; lactam 1-C), the result in assay [2] was inactive.
